Drawing on US10167302B2, “Phosphonate nucleosides useful in the treatment of viral diseases” (University College Cork, priority 2014, dated 2019), this text covers IC50 and melting point for 20 compounds.

The target in one data set is HCMV DNA pol (Human cytomegalovirus, UniProt P08546). In words: HCMV DNA polymerase activity, calf thymus DNA as template primer. It is filed as biochemical. Particulars: [3H]dTTP incorporation, all four dNTPs. The protocol: (§1) The HCMV and HSV-1 DNA polymerase activity was measured in the presence of calf thymus DNA as template primer, and all four dNTPs as the nucleotide substrates of which dTTP was tritiated.
Sequence of HCMV DNA pol (P08546 whole entry): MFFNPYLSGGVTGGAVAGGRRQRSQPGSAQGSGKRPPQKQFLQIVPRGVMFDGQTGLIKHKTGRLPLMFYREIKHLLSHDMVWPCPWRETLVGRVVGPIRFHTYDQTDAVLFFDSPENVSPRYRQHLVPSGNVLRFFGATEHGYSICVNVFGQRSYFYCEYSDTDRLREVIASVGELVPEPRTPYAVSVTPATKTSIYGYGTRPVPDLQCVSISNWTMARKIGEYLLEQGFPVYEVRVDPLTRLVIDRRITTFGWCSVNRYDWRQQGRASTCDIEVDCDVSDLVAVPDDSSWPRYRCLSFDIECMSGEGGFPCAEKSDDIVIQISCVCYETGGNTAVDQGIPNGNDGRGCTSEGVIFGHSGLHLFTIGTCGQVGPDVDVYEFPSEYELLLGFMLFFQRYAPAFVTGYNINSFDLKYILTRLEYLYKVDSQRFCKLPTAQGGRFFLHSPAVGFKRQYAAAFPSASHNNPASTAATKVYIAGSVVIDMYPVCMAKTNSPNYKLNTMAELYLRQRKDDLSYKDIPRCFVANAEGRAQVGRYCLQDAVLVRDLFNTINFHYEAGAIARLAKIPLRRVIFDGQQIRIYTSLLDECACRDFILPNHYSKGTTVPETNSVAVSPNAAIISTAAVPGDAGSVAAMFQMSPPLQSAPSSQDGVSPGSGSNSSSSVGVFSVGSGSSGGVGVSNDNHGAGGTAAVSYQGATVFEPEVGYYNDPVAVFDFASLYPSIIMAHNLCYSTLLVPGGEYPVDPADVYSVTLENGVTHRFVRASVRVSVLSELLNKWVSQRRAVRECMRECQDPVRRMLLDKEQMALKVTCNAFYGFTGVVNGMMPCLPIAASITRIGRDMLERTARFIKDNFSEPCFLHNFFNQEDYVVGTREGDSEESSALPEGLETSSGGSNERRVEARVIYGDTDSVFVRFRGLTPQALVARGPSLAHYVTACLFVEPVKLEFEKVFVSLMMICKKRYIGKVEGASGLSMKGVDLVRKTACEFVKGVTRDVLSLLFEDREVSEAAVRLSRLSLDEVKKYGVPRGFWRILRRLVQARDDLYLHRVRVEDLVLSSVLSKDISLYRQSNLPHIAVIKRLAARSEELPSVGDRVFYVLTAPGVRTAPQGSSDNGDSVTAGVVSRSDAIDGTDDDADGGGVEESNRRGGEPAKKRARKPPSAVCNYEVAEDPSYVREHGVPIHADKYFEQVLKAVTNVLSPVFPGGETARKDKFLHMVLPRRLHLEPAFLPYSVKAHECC

The target of the next data set is T1, HIV-1 RT (Human immunodeficiency virus type 1 group M subtype B, UniProt P04585).
T1 construct: HIV-1 RT Assays in the Presence of Artificial Template/Primer
In words: HIV-1 RT assay in the presence of artificial template/primer. Type of data set: biochemical. The protocol: HIV-1 RT Assays in the Presence of Artificial Template/Primer
To prepare the template/primers for the RT experiments, 0.15 mM poly(U), poly(A), and poly(I) were mixed with an equal volume of 0.0375 mM oligo(dA), oligo(dT), and oligo(dC), respectively. The final concentrations of the templates in the RT reaction mixture were 0.015 mM. The reaction mixture (50 μl) contained 50 mM Tris.HCl (pH 7.8), 5 mM dithiothreitol, 300 mM glutathione, 500 μM EDTA, 150 mM KCl, 5 mM MgCl2, 1.25 μg of bovine serum albumin, an appropriate concentration of labeled (tritiated) substrate dTTP, dCTP, or dATP (2 μCi/assay), a fixed concentration of the template/primer poly(A).oligo(dT) (0.015 mM), poly(I).oligo(dC) (0.015 mM), and poly(U).oligo(dA) (0.015 mM), 0.06% Triton X-100, 10 μl of inhibitor solution (containing various concentrations of the compounds), and 1 μl of the RT preparation. The reaction mixtures were incubated at 37° C. for 30 min, at which time 100 μl of yeast RNA (1 mg/ml) and 1 ml of Na4P2O7 (0.02 M) in trichloroacetic acid (5% v/v) were added. The solutions were kept on ice for 30 min, after which the acid-insoluble material was washed and analyzed for radioactivity.

Another data set concerns the target HSV-1 DNA pol (Human herpesvirus 1, UniProt P04293). The data set is described as follows: HSV-1 DNA polymerase activity, calf thymus DNA as template primer. It is filed as biochemical. Particulars: [3H]dTTP incorporation, all four dNTPs. The protocol: as §1
[1] abbreviates: values marked *: in poly rA.dT/dTTP RT assay, read-out: IC50 HIV-1 RT.

Where two headings read alike, the source gives them in different places.

Sequence of HSV-1 DNA pol (P04293 whole entry): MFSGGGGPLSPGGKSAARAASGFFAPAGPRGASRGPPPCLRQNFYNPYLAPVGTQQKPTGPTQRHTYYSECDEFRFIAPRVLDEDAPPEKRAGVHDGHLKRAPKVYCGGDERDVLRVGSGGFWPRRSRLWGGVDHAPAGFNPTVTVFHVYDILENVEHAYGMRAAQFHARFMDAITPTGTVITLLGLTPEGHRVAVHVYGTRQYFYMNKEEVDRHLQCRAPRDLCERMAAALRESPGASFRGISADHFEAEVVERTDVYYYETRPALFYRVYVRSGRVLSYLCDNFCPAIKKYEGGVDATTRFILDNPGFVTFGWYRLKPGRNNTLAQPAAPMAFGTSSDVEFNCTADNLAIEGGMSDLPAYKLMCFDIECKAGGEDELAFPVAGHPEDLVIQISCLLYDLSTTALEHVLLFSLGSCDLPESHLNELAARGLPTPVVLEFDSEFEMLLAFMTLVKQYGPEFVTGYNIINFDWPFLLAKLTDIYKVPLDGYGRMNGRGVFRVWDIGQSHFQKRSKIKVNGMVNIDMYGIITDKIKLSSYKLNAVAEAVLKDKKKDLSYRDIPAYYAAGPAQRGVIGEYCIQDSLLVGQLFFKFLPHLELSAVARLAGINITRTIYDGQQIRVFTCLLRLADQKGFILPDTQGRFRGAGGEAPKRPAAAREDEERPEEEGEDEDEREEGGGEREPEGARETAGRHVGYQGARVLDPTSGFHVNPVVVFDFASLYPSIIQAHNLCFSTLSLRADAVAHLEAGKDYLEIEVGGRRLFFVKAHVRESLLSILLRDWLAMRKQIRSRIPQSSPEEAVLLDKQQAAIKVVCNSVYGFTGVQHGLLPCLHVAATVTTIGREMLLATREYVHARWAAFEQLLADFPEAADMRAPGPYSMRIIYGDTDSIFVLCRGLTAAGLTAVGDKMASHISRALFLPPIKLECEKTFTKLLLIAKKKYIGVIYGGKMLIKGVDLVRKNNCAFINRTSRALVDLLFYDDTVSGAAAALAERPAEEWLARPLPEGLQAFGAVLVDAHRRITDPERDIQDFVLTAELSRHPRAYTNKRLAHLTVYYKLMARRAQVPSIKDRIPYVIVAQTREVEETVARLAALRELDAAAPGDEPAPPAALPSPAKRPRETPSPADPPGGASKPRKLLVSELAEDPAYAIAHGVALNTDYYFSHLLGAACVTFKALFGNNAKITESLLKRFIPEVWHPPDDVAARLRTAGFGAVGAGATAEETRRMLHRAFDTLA

On to `COC(=O)C(OC[C@@H]1CCCC[C@@H]1Cn1cc(C)c(=O)[nH]c1=O)P(=O)(O)O` (stereo partly drawn) [Compound 13j], for which the 50% inhibitory concentration (IC50) – broadly, the concentration needed to halve the response being measured – against HCMV DNA pol is 16 ± 3 µM; on HIV-1 RT it was at least 500 µM; against HSV-1 DNA pol, 43 µM.
For the compound `Cc1cn(CCCCOC(C(=O)O)P(=O)(O)O)c(=O)[nH]c1=O` (stereo not drawn) [Compound 13h, 2-(4-(2,4-Dioxo-5-methyl-pyrimidin-1-yl)butyloxy)-2-phosphonoacetic acid], the IC50 came out at 29 ± 3 µM against HCMV DNA pol, 145 ± 106 µM at HIV-1 RT and 56 µM at HSV-1 DNA pol.
For `Cc1cn(Cc2ccccc2COC(C(=O)O)P(=O)(O)O)c(=O)[nH]c1=O` (stereo not drawn) [Compound 13g, 2-(2-((2,4-Dioxo-5-methyl-pyrimidin-1-yl)methyl)benzyloxy)-2-phosphonoacetic acid], the IC50 against HCMV DNA pol is 13 ± 4 µM; at HIV-1 RT, 131 ± 86 µM; at HSV-1 DNA pol it was 11 µM.
On to `Cc1cn(CC#CCOC(C(=O)O)P(=O)(O)O)c(=O)[nH]c1=O` (stereo not drawn) [Compound 13b, 2-(4-(2,4-Dioxo-5-methyl-pyrimidin-1-yl)but-2-ynyloxy)-2-phosphonoacetic acid], for which the half-inhibitory concentration (IC50) at HCMV DNA pol and at HIV-1 RT was above 500 µM throughout.
`Nc1ncnc2c1ncn2C/C=C\COC(C(=O)O)P(=O)(O)O` (stereo not drawn) [Compound 13m, 2-Cis-(4-(6-amino-9H-purin-9-yl)but-2-enyloxy)-2-phosphonoacetic acid]: the 50% inhibitory concentration (IC50) on HIV-1 RT (setting [1]) turned out to be 426 µM.
For the compound `O=C(O)C(OCCCCn1cc(F)c(=O)[nH]c1=O)P(=O)(O)O` (stereo not drawn) [Compound 13l, 2-(4-(5-fluoro-2,4-dioxo-3,4-dihydropyrimidin-1(2H)-yl)butoxy)-2-phosphonoacetic acid], the IC50 at HIV-1 RT (setting [1]) came out at 214 µM.
For the compound `Cc1cn(C[C@@H](O)[C@@H](O)COC(C(=O)O)P(=O)(O)O)c(=O)[nH]c1=O` (stereo partly drawn) [JJ-379], the melting point (in general, the temperature of the solid-liquid transition) is 199 to 201 °C.
`Cc1cn(CC(C)OC(C(=O)O)P(=O)(O)O)c(=O)[nH]c1=O` (stereo not drawn) [Compound 8b, 2-((1-(5-Methyl-2,4-dioxo-3,4-dihydropyrimidin-1(2H)-yl)propan-2-yl)oxy)-2-phosphonoacetic acid]: the IC50 came to 111 ± 24 µM on HCMV DNA pol, 18 µM on HIV-1 RT and 12 µM on HSV-1 DNA pol.
`Cc1cn(C(C)COC(C(=O)O)P(=O)(O)O)c(=O)[nH]c1=O` (stereo not drawn) [Compound 8c, 2-(2-(5-Methyl-2,4-dioxo-3,4-dihydropyrimidin-1(2H)-yl)propoxy)-2-phosphonoacetic acid]: the values for the half-maximal inhibitory concentration (IC50) against HCMV DNA pol, at HIV-1 RT and at HSV-1 DNA pol were above 200 µM, 133 ± 16 µM and 16 µM, respectively.
For the compound `Cc1cn(C[C@H]2C3C=CC(C3)[C@H]2COC(C(=O)O)P(=O)(O)O)c(=O)[nH]c1=O` (stereo partly drawn) [Compound 13f], the IC50 on HCMV DNA pol turned out to be 14 ± 2 µM; on HIV-1 RT, 340 ± 139 µM; against HSV-1 DNA pol, 32 µM.
On to `Cc1cn(CCOC(C(=O)O)P(=O)(O)O)c(=O)[nH]c1=O` (stereo not drawn) [Compound 8a, 2-(2-(5-Methyl-2,4-dioxo-3,4-dihydropyrimidin-1(2H)-yl)ethoxy)-2-phosphonoacetic acid], for which the half-inhibitory concentration (IC50) at HCMV DNA pol came to 161 ± 8 µM; on HIV-1 RT, 17 µM; on HSV-1 DNA pol, 19 µM.
In the case of `O=C(O)C(OC/C=C\Cn1cc(F)c(=O)[nH]c1=O)P(=O)(O)O` (stereo not drawn) [Compound 13k, 2-Cis-(4-(5-fluoro-2,4-dioxo-3,4-dihydropyrimidin-1(2H)-yl)but-2-enyloxy)-2-phosphonoacetic acid], the IC50 on HIV-1 RT (setting [1]) was above 500 µM.
Same read-out and setting: the figure for `Nc1ccn(C/C=C\COC(C(=O)O)P(=O)(O)O)c(=O)n1` (stereo not drawn) [Compound 13o, 2-Cis-(4-(4-amino-2-oxopyrimidin-1(2H)-yl)but-2-enyloxy)-2-phosphonoacetic acid] is 246 µM.
On to `Cc1cn(C[C@H]2CCC[C@H]2COC(C(=O)O)P(=O)(O)O)c(=O)[nH]c1=O` (stereo partly drawn) [Compound 13d], for which the half-inhibitory concentration (IC50) is 40 ± 25 µM at HCMV DNA pol, at least 500 µM on HIV-1 RT and 34 µM against HSV-1 DNA pol.
Turning to `Cc1cn(C[C@H]2C[C@H]2COC(C(=O)O)P(=O)(O)O)c(=O)[nH]c1=O` (stereo partly drawn) [Compound 13c], the half-maximal inhibitory concentration (IC50) is 4.6 ± 0.2 µM against HCMV DNA pol, 440 ± 85 µM at HIV-1 RT and 35 µM against HSV-1 DNA pol.
`Cc1cn(Cc2cn(CCOC(C(=O)O)P(=O)(O)O)nn2)c(=O)[nH]c1=O` (stereo not drawn) [JJ-210, 2-(2-(4-((5-methyl-2,4-dioxo-3,4-dihydropyrimidin-1(2H)-yl)methyl)-1H-1,2,3-triazol-1-yl)ethoxy)-2-phosphonoacetic acid] displayed a melting point of 189 to 191 °C.
As for `Nc1nc(Cl)c2ncn(C/C=C\COC(C(=O)O)P(=O)(O)O)c2n1` (stereo not drawn) [Compound 13n, 2-Cis-(4-(2-amino-6-chloro-9H-purin-9-yl)but-2-enyloxy)-2-phosphonoacetic acid], the concentration for half-maximal inhibition (IC50) at HIV-1 RT (setting [1]) is at least 500 µM.
Take `Cc1cn(C/C=C\COC(C(=O)O)P(=O)(O)O)c(=O)[nH]c1=O` (stereo not drawn) [Compound 13a, cis-2-(4-(2,4-Dioxo-5-methyl-pyrimidin-1-yl)but-2-enyloxy)-2-phosphonoacetic acid]: the IC50 on HCMV DNA pol was determined as 2.1 ± 0.6 µM; on HIV-1 RT, 235 ± 16 µM; against HSV-1 DNA pol, 20 µM.
Turning to `Cc1cn(C[C@H]2CC=CC[C@H]2COC(C(=O)O)P(=O)(O)O)c(=O)[nH]c1=O` (stereo partly drawn) [Compound 13e], the results for the half-inhibitory concentration (IC50) at HCMV DNA pol, on HIV-1 RT and against HSV-1 DNA pol were 3 ± 0.5 µM, 425 ± 106 µM and 16 µM, respectively.
Regarding `Cc1cn(C[C@H]2CCCC[C@H]2COC(C(=O)O)P(=O)(O)O)c(=O)[nH]c1=O` (stereo partly drawn) [Compound 13i], the IC50 was 4 µM on HCMV DNA pol, at least 500 µM at HIV-1 RT and 13 µM at HSV-1 DNA pol.
